Assay results from ChEMBL document CHEMBL1201862, “PubChem BioAssay data set” (2004).
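In this assay, cells in 96-well plates receive the compound at five concentrations for 48 hours. Endpoints are linearly interpolated between the surrounding concentrations. The concentration for 50% growth inhibition is given as GI50.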 Active and inactive are the calls of the source. No stated cut-off is given here; in the data, active = GI50 up to about 1.1 µM and inactive = higher.

Columns and labels:
Assay in all cases: NCI-60 cell line screen, 48 h
KM-20L2 = system: KM-20L2
DMS-273 = system: DMS-273
SNB-78 = system: SNB-78
XF498 = system: XF498
M19-MEL = system: M19-MEL
DMS-114 = system: DMS-114
Hs-578T = system: Hs-578T
LXFL 529 = system: LXFL 529
RXF 631 = system: RXF 631

## COc1cccc2c1C(=O)c1c(O)c3c(c(O)c1C2=O)C[C@](O)(C(=O)CO)CC3OC1CC(N)C(OC2CCCCO2)C(C)O1 (stereo not given in full)
KM-20L2
  GI50: 0.624 µM (active)
DMS-273
  GI50: 0.019 µM (active)
SNB-78
  GI50: 1.24 µM (inactive)
XF498
  GI50: 0.0678 µM (active)

## COc1ccc2[nH]c3c(C)c4c(c(C)c3c2c1)CN(C)C=C4
KM-20L2
  GI50: 2.75 µM (inactive)
M19-MEL
  GI50: 1.02 µM (active)
DMS-273
  GI50: 0.75 µM (active)
DMS-114
  GI50: 0.398 µM (active)
Hs-578T
  GI50: 0.24 µM (active)
LXFL 529
  GI50: 0.218 µM (active)
SNB-78
  GI50: 0.432 µM (active)
XF498
  GI50: 1.07 µM (active)

## CCC1=CC2CN3CCc4c([nH]c5ccccc45)C(C(=O)OC)(C2)C13 (stereo not given)
KM-20L2
  GI50: 1.22 µM (inactive)
M19-MEL
  GI50: 42.6 µM (inactive)
DMS-273
  GI50: 48.6 µM (inactive)
DMS-114
  GI50: 39.4 µM (inactive)
SNB-78
  GI50: 64.7 µM (inactive)
XF498
  GI50: 35.7 µM (inactive)

## Nc1ncnc2c(C3OC(CO)C(O)C3O)n[nH]c12 (stereo not given)
KM-20L2
  GI50: 0.229 µM (active)
M19-MEL
  GI50: 2.42 µM (inactive)
DMS-273
  GI50: 0.0826 µM (active)
DMS-114
  GI50: 0.208 µM (active)
SNB-78
  GI50: 0.53 µM (active)
XF498
  GI50: 0.158 µM (active)

## COc1ccc(C(c2ccccc2)(c2ccc(OC)cc2)N2C(=O)NC3C(CCCCC(=O)NCCCCCCOP(OCCC#N)N(C(C)C)C(C)C)SCC32)cc1 (stereo not given)
KM-20L2
  GI50: 17.1 µM (inactive)
M19-MEL
  GI50: 16.8 µM (inactive)
DMS-273
  GI50: 12.7 µM (inactive)
RXF 631
  GI50: 4.06 µM (inactive)
DMS-114
  GI50: 17.7 µM (inactive)
LXFL 529
  GI50: 11.9 µM (inactive)
SNB-78
  GI50: 16.2 µM (inactive)
XF498
  GI50: 15.8 µM (inactive)

## CCOC(=O)c1nc2ccccc2nc1Nc1ccc(F)cc1
Hs-578T
  GI50: 10.2 µM (inactive)

## O=C1CC2[C@@H](N3CCCC3)CCC(N1Cc1ccccc1)C2(O)O (stereo not given in full)
Hs-578T
  GI50: > 100 µM (inactive)

## CN1CCC(CNC(=O)CCCCCCCCC(=O)NCC2(c3ccccc3)CCN(C)CC2)(c2ccccc2)CC1
Hs-578T
  GI50: 84.1 µM (inactive)

## c1ccc(C(=NCCC2CNc3ccccc32)c2ccccc2)cc1 (stereo not given)
Hs-578T
  GI50: > 100 µM (inactive)

## COc1cc(CNC(=O)CCCCCCCC/C=C/Br)ccc1O
Hs-578T
  GI50: > 10 µM (inactive)

## Cc1ccc2nnc(NS(=O)(=O)c3cc(C)c(Cl)cc3S)n2n1
Hs-578T
  GI50: > 100 µM (inactive)

## Fc1cc(-c2cc(-c3ccccc3)no2)c(Cl)cc1Cl
Hs-578T
  GI50: > 34.8 µM (inactive)

## COC1OC(CO)C(O)C(OC(=O)c2cc(O)c(O)c(O)c2)C1OC(=O)c1cc(O)c(O)c(O)c1 (stereo not given)
Hs-578T
  GI50: > 100 µM (inactive)

## COC(=O)C1(NC(=O)C(Cc2ccccc2)N(C(=O)OC(C)(C)C)C(=O)OC(C)(C)C)CCCC1 (stereo not given)
Hs-578T
  GI50: > 100 µM (inactive)

## O=C(CCC(=O)Nc1ccc(Cl)c(Cl)c1)CC(=O)c1ccc2ccccc2c1
KM-20L2
  GI50: 25.9 µM (inactive)
M19-MEL
  GI50: > 100 µM (inactive)
DMS-273
  GI50: 62.4 µM (inactive)
RXF 631
  GI50: > 100 µM (inactive)
DMS-114
  GI50: 86.5 µM (inactive)
LXFL 529
  GI50: 42.7 µM (inactive)
SNB-78
  GI50: > 100 µM (inactive)

## CC1=C(C(=O)N[C@@H](CC(C)C)C(=O)O)N2C(=O)[C@@H](NC(=O)[C@@H](N)Cc3ccccc3)[C@H]2SC1
Hs-578T
  GI50: > 100 µM (inactive)

## CCOC(=O)c1c2cccccc-2nc1Nc1cccc2c(C)ccnc12
Hs-578T
  GI50: > 10 µM (inactive)

## Cc1cn(C2CC(n3cc(Cn4cc(I)c(=O)[nH]c4=O)nn3)C(CO)O2)c(=O)[nH]c1=O (stereo not given)
Hs-578T
  GI50: > 100 µM (inactive)

## CCOP(=O)(OCC)C(c1ccc(F)cc1)N(C(=O)NC(F)(F)F)c1ccc(F)cc1 (stereo not given)
Hs-578T
  GI50: > 100 µM (inactive)

## Nc1nc(Cl)cc(NCCO)n1
Hs-578T
  GI50: > 100 µM (inactive)

## O=C1/C(=C\c2cccc(Oc3ccccc3)c2)S(=O)(=O)C(c2ccccc2)N1c1cc(Cl)ccc1Cl (stereo not given)
Hs-578T
  GI50: 33.7 µM (inactive)

## NNc1[nH]c(=S)[nH]c1C(N)=O
Hs-578T
  GI50: > 100 µM (inactive)

## CNc1ccc([N+](=O)[O-])cc1C(=O)N1CCC[C@H]1CO
Hs-578T
  GI50: > 100 µM (inactive)

## COC1/C=C/C(C)C(C(C)C(OC)C(C)CCC(=O)C(C)C(CCC(=O)O)OC)OC(=O)/C=C/C=C(\C)CC(OC)CC2=CC(=O)O[C@@H](C(C)C(OC)CC(OC)/C=C/C(C)C(OC)C1)[C@H]2O (stereo not given in full)
Hs-578T
  GI50: 0.499 µM (active)

## CC(C)(C)C(=O)OCC1CCC(n2cnc3c(=O)[nH]c(N)nc32)O1 (stereo not given)
KM-20L2
  GI50: > 100 µM (inactive)
M19-MEL
  GI50: > 100 µM (inactive)
DMS-273
  GI50: > 100 µM (inactive)
DMS-114
  GI50: > 100 µM (inactive)
SNB-78
  GI50: > 100 µM (inactive)
XF498
  GI50: > 100 µM (inactive)

## COc1ccc(Sc2ccccc2[N+](=O)[O-])cc1
KM-20L2
  GI50: > 10 µM (inactive)
M19-MEL
  GI50: 7.23 µM (inactive)
DMS-273
  GI50: 4.98 µM (inactive)
RXF 631
  GI50: 9.75 µM (inactive)
LXFL 529
  GI50: 27.5 µM (inactive)
SNB-78
  GI50: 26.4 µM (inactive)

## c1ccc(COC2C3COC(O3)C(OCc3ccccc3)C2OCc2ccccc2)cc1 (stereo not given)
Hs-578T
  GI50: 31.4 µM (inactive)

## NC(=O)c1ncn(Cc2ccccc2)c1CNC(N)=S
M19-MEL
  GI50: > 100 µM (inactive)
DMS-273
  GI50: > 100 µM (inactive)
RXF 631
  GI50: > 100 µM (inactive)
DMS-114
  GI50: > 100 µM (inactive)
LXFL 529
  GI50: > 100 µM (inactive)
SNB-78
  GI50: > 100 µM (inactive)
XF498
  GI50: > 100 µM (inactive)

## CCCCN(CCCC)C(=O)C(=O)C(C(=O)c1ccc(OC)cc1)c1ccc(OC)cc1 (stereo not given)
KM-20L2
  GI50: > 100 µM (inactive)
RXF 631
  GI50: > 100 µM (inactive)
DMS-114
  GI50: 78.7 µM (inactive)
LXFL 529
  GI50: > 100 µM (inactive)
SNB-78
  GI50: > 100 µM (inactive)

## c1ccc(-c2c3c(nc4c2CC[C@H]4NC2=NCCN2)[C@@H](NC2=NCCN2)CC3)cc1
Hs-578T
  GI50: > 100 µM (inactive)

## O=C(N/N=C\c1ccc([N+](=O)[O-])cc1)Nc1ccccc1
Hs-578T
  GI50: > 100 µM (inactive)

## Cn1c(=O)c(-c2ccccc2)c(O)c2ccccc21
Hs-578T
  GI50: 66.4 µM (inactive)
